This is an account of results in patent EP0970046B1, “N-HYDROXY-2-(ALKYL, ARYL, OR HETEROARYL SULFANYL, SULFINYL OR SULFONYL)-3-SUBSTITUTED ALKYL, ARYL OR HETEROARYLAMIDES AS MATRIX METALLOPROTEINASE INHIBITORS” (Wyeth Holdings Corporation, priority 1997, dated 1998).

Where two headings read alike, the source gives them in different places.

One test deals with T1, TACE (Homo sapiens, UniProt P78536).
T1 construct: purchased Immunex
Kind of test: Procedure for Measuring TACE Inhibition. Format: biochemical. The note with it: for inhibition at 1 µM: read-out: TACE % inhibition at 1 µM. The procedure: Using 96-well black microtiter plates, each well receives a solution composed of 10 µL TACE (Immunex, final concentration 1µg/mL), 70µL Tris buffer, pH 7.4 containing 10% glycerol (final concentration 10 mM), and 10 µL of test compound solution in DMSO (final concentration 1µM, DMSO concentration <1%) and incubated for 10 minutes at room temperature. The reaction is initiated by addition of a fluorescent peptidyl substrate (final concentration 100 µM) to each well and then shaking on a shaker for 5 sec. The reaction is read (excitation 340 nm, emission 420 nm) for 10 min. and the increase in fluorescence over time is plotted as a linear line. The slope of the line is calculated and represents the reaction rate. The linearity of the reaction rate is confirmed (r^2 >0.85). The mean (x±sem) of the control rate is calculated and compared for statistical significance (p<0.05) with drug-treated rates using Dunnett's multiple comparison test.

For a further test, the target named is MMP 13 (Homo sapiens, UniProt P45452). Kind of test: MMP 13 inhibition (HTS; method not described). Format: biochemical. Particulars: HTS; for inhibition at 0.2 µM: read-out: MMP 13 % inhibition at 0.2 µM (HTS); for inhibition at 0.036 µM: read-out: MMP 13 % inhibition at 36 nM (HTS); for MMP 13 % inhibition at 36 nM (HTS) / inhibition at 0.036 µM: 36 nM; for inhibition: read-out: MMP 13 % inhibition (HTS).

T1 sequence (P78536 215-824): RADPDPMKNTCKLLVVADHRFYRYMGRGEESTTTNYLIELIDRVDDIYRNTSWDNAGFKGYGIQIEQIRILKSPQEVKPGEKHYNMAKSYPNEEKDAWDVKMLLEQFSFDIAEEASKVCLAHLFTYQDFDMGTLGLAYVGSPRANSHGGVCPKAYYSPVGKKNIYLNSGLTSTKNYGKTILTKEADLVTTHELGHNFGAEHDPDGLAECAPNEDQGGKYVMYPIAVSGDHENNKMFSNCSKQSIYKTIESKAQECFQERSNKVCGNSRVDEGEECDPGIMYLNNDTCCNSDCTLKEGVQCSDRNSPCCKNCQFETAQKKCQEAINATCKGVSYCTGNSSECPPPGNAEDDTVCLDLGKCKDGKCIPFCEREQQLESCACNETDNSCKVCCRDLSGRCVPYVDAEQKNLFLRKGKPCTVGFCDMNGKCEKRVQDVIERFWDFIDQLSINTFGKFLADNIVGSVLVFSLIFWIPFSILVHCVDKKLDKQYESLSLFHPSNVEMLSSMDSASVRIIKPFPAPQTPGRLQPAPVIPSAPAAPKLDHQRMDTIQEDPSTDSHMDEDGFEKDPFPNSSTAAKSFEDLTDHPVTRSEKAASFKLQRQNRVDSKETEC

The term inhibition denotes the drop in the measured response relative to a control, in per cent. On to `CC(C)C(Sc1ccc2ccccc2c1)C(=O)NO` (stereo not shown) [Example 114, N-hydroxy-3-methyl-2-(naphthalen-2-ylsulfanyl)-butyramide], for which the inhibition at 1 µM on TACE (Examples 110-168) amounted to 0%. The inhibition at 0.2 µM at MMP 13 came to 0%.

In the case of “5-Pyridin-2-yl-thiophene-2-sulfonic acid 4(1-hydroxycarbamoyl-heptylsulfinyl)-hydroxy amide [Example 237]”, on TACE (Examples 169-240), the “TACE % inhibition at 1 µM” value was found to be 38.2%. The “MMP 13 % inhibition at 36 nM (HTS)” value at MMP 13 is 55%.

For `O=C(NO)C(Cc1cnc[nH]1)[S+]([O-])c1ccc(Br)cc1` (stereo not shown) [Example 153, 2-(4-bromo-benzenesulfinyl)-N-hydroxy-3-(3H-imidazol-4-yl)-propionamide], the inhibition at 1 µM at TACE (Examples 110-168) was found to be 11.8%. Moreover, at MMP 13, the inhibition at 0.2 µM was 12%.

Take “3-Bromo-2-chloro-thiophene-2-sulfonic acid 4-(1-hydroxycarbamoyl-heptylsulfonyl)-hydroxyamide [Example 239]”: the “TACE % inhibition at 1 µM” value at TACE (Examples 169-240) came out at 45.9%. Also, the “MMP 13 % inhibition at 36 nM (HTS)” value at MMP 13 was 54%.

`CCCCCCC(Sc1nccs1)C(=O)NO` (stereo not shown) [Example 186, 2-(Thiazol-2-ylsulfanyl)-octanoic acid hydroxyamide]: on TACE (Examples 169-240), the inhibition at 1 µM amounted to 19.5%. Besides, on MMP 13, the inhibition at 0.036 µM is -14%.

Take “2,5-Dichloro-thiophene-3-sulfonic acid 4-(1-hydroxycarbamoyl-heptylsulfanyl)-hydroxyamide [Example 233]”: the “TACE % inhibition at 1 µM” value at TACE (Examples 169-240) stood at 19.8%. Further, the “MMP 13 % inhibition at 36 nM (HTS)” value at MMP 13 is 33%.

Take `O=C(NO)C(Cc1cnc[nH]1)S(=O)(=O)c1ccc(Cl)cc1` (stereo not shown) [Example 154, 2-(4-chloro-benzenesulfonyl)-N-hydroxy-3-(3H-imidazol-4-yl)-propionamide]: the inhibition at 1 µM at TACE (Examples 110-168) came to 13.1%. The inhibition at 0.2 µM at MMP 13 came out at 89%.

Regarding `CCCCCCC(C(=O)NO)S(=O)(=O)c1cccc(C(=O)NO)c1` (stereo not shown) [Example 192, 3-(1-Hydroxycarbamoyl-heptylsulfonyl)-benzoic acid hydroxyamide], on TACE (Examples 169-240), the inhibition at 1 µM was 33.2%. In addition, the inhibition at 0.036 µM at MMP 13 was -32%.

As for `CCCCCCC(Sc1nnnn1C)C(=O)NO` (stereo not shown) [Example 176, 2-(1-Methyl-1H-tetrazol-5-ylsulfanyl)-octanoic acid hydroxyamide], the inhibition at 1 µM at TACE (Examples 169-240) was 26.6%. Besides, the inhibition at 0.036 µM on MMP 13 came to 6%.

With `CCCCCCC(SCCc1cnccn1)C(=O)NO` (stereo not shown) [Example 175, 2-(2-Pyrazin-2-yl-ethylsulfanyl)-octanoic acid hydroxyamide], at TACE (Examples 169-240), the inhibition at 1 µM was found to be 32.9%. Also, at MMP 13, the inhibition is 37% and the inhibition at 0.036 µM came to 16%.

For the compound “(1-Hydroxycarbamoyl-propane-1-sulfinyl)-acetic acid hydroxy amide [Example 121]”, at TACE (Examples 110-168), the “TACE % inhibition at 1 µM” value is recorded as 6.1%. Also, at MMP 13, the “MMP 13 % inhibition at 0.2 µM (HTS)” value turned out to be 0%.

In the case of `CC(C)C(C(=O)NO)S(=O)(=O)CCc1ccccc1` (stereo not shown) [Example 118, N-Hydroxy-3-methyl-2-phenethylsulfonyl-butyramide], the inhibition at 1 µM at TACE (Examples 110-168) came out at 16.7%. The inhibition at 0.2 µM at MMP 13 was determined as 24%.

On to `COc1ccc(SC(C)C(=O)NO)cc1` (stereo not shown) [Example 111, N-Hydroxy-2-(4-methoxy-benzenesulfanyl)-propionamide], for which, on TACE (Examples 110-168), the “TACE % inhibition at 1 µM” value is 40.4%. The “MMP 13 % inhibition at 0.2 µM (HTS)” value on MMP 13 amounted to 10%.

Consider `N=C(N)NCCCC(C(=O)NO)[S+]([O-])c1cccc(F)c1` (stereo not shown) [Example 156, 2-(3-Fluorophenylsulfinyl)-5-guanidino-pentanoic acid hydroxyamide], for which the inhibition at 1 µM on TACE (Examples 110-168) was -2.09%. On MMP 13, the inhibition at 0.2 µM stood at 23%.

Turning to `O=C(NO)C(COCc1ccccc1)[S+]([O-])Cc1ccccc1Cl` (stereo not shown) [Example 150, 3-Benzyloxy-N-hydroxy-2-(2-chloro-benzylsulfinyl)-propionamide], the inhibition at 1 µM on TACE (Examples 110-168) was 1.82%. On MMP 13, the inhibition at 0.2 µM came out at 54%.

Consider `CCCCCCC(C(=O)NO)[S+]([O-])CCc1cnccn1` (stereo not shown) [Example 180, 2-(2-Pyrazin-2-yl-ethylsulfinyl)-octanoic acid hydroxyamide], for which the inhibition at 1 µM on TACE (Examples 169-240) was 34.4%. In addition, the inhibition at 0.036 µM at MMP 13 stood at 14%.

On to `CCCCCCC(C(=O)NO)S(=O)(=O)c1cc(Cl)ccc1Cl` (stereo not shown) [Example 161, 2-(2,5-Dichlorobenzenesulfonyl)-octanoic acid hydroxyamide], for which, at TACE (Examples 110-168), the inhibition at 1 µM came out at 12.7%. In addition, the inhibition at 0.2 µM on MMP 13 amounted to 0%.

In the case of “(1-Hydroxycarbamoyl-propane-1-sulfanyl)-propionic acid hydroxyamide [Example 122]”, at TACE (Examples 110-168), the “TACE % inhibition at 1 µM” value was determined as 3.1%. The “MMP 13 % inhibition at 0.2 µM (HTS)” value at MMP 13 was determined as 0%.

Regarding `CCCCCCC(C(=O)NO)[S+]([O-])c1nc(-c2ccccc2)cs1` (stereo not shown) [Example 179, 2-(4-Phenyl-thiazole-2-sulfinyl)-octanoic acid hydroxyamide], at TACE (Examples 169-240), the inhibition at 1 µM came to 42.7%. Further, at MMP 13, the inhibition at 0.036 µM was 12%.

For `CCCCCCC(C(=O)NO)[S+]([O-])c1cccc2cccnc12` (stereo not shown) [Example 190, 2-(Quinoline-8-sulfinyl)-octanoic acid hydroxyamide], the inhibition at 1 µM at TACE (Examples 169-240) was found to be 38.3%. At MMP 13, the inhibition at 0.036 µM was -35%.

As for `CCCCCCC(Sc1ccc(N2CCNCC2)cc1)C(=O)NO` (stereo not shown) [Example 231, 2-(4-Piperazin-1-yl-phenylsulfanyl)-octanoic acid hydroxyamide], the inhibition at 1 µM at TACE (Examples 169-240) stood at 41.6%. Further, the inhibition at 0.036 µM at MMP 13 came out at 23%.

As usually defined, the IC50 is the point on the concentration scale where inhibition reaches its midpoint. Take `CCCCCCC(Sc1ccc(N2CCCCC2)cc1)C(=O)NO` (stereo not shown) [Example 230, 2-(4-Piperidin-1-yl-phenylsulfanyl)-octanoic acid hydroxyamide]: on TACE (Examples 169-240, read-out: TACE IC50), the 50% inhibitory concentration (IC50) amounted to 700 nM. In addition, the inhibition at 1 µM on TACE (Examples 169-240) was determined as 72.1%. Besides, the inhibition at 0.036 µM on MMP 13 was 29%.

Turning to “N-Hydroxy-3-methyl-2-phenethylsulfinyl-butyramide [Example 117]”, the “TACE % inhibition at 1 µM” value on TACE (Examples 110-168) amounted to 8.1%. At MMP 13, the “MMP 13 % inhibition at 0.2 µM (HTS)” value was 7%.

Consider `CS(=O)(=O)c1ccc(S(=O)(=O)C(COCc2ccccc2)C(=O)NO)cc1` (stereo not shown) [Example 148, 3-Benzyloxy-N-hydroxy-2-(4-methanesulfonyl-benzenesulfonyl)-propionamide], for which the inhibition at 1 µM on TACE (Examples 110-168) was 43.5%. Besides, on MMP 13, the inhibition at 0.2 µM came to 15%.

Take `CCCCCCC(Sc1ccc(Nc2ccncc2)cc1)C(=O)NO` (stereo not shown) [Example 227, 2-[4-(Pyridin-4-ylamino)-phenylsulfanyl]-octanoic acid hydroxyamide]: the inhibition at 1 µM at TACE (Examples 169-240) is 7.3%. In addition, the inhibition at 0.036 µM on MMP 13 came out at 15%.

Consider `CCCCCCC(Sc1ccc(NC2CCCC2)cc1)C(=O)NO` (stereo not shown) [Example 228, 2-(4-Cyclopentylamino-phenylsulfanyl)-octanoic acid hydroxyamide], for which the inhibition at 1 µM at TACE (Examples 169-240) was determined as 6.8%. On MMP 13, the inhibition at 0.036 µM turned out to be 37%.

For the compound `O=C(CCC(Sc1ccc(Br)cc1)C(=O)NO)NO` (stereo not shown) [Example 134, 4-Hydroxycarbamoyl-4-(4-bromo-benzenesulfanyl)-butyric acid hydroxyamide], the “TACE % inhibition at 1 µM” value on TACE (Examples 110-168) is -9.31%. For the same compound, at MMP 13, the “MMP 13 % inhibition at 0.2 µM (HTS)” value turned out to be 25%.

For `CCCCCCC(C(=O)NO)S(=O)(=O)c1cccc2cccnc12` (stereo not shown) [Example 196, 2-(Quinoline-8-sulfonyl)-octanoic acid hydroxyamide], at MMP 13, the inhibition was determined as 11% and the inhibition at 0.036 µM was -18%.
